According to patent publication US20220125944A1, “ANTIBODY-DRUG CONJUGATE AND USE THEREOF” (priority 2019, published 2022):
Like-named read-outs stand apart in the source and are kept apart here.

Columns and labels:
Calu-6 = experiment: Cytotoxicity of linker-drug complex, Calu-6; type: cell-based; settings: Homo sapiens
Method: (§1) The cytotoxicity of the linker-drug complex itself prepared to contain beta-galactosidase was evaluated. Specifically, each of the linker-drug complexes dissolved in DMSO was serially diluted 3× from 200 nM to 30 pM in a medium for cell culture to prepare a sample, and various cancer cell lines were treated with the sample to finally expose the cells to 100 nM to 15 pM the linker-drug complexes. The cells were cultured for 6 days, cell viability was observed using a CCK-8 cell-counting kit and cytotoxicity was evaluated.

H929 = experiment: Cytotoxicity of linker-drug complex, H929; type: cell-based; settings: Homo sapiens
Method: as §1

Jeko-1 = experiment: Cytotoxicity of linker-drug complex, Jeko-1; type: cell-based; settings: Homo sapiens
Method: as §1

HCC1954 = experiment: Cytotoxicity of linker-drug complex, HCC1954; type: cell-based; settings: Homo sapiens
Method: as §1

jurkat = experiment: Cytotoxicity of linker-drug complex, jurkat; type: cell-based; settings: Homo sapiens
Method: as §1

Raji = experiment: Cytotoxicity of linker-drug complex, Raji; type: cell-based; settings: Homo sapiens
Method: as §1

JIMT1 = experiment: Cytotoxicity of linker-drug complex, JIMT1; type: cell-based; settings: Homo sapiens
Method: as §1

Mino = experiment: Cytotoxicity of linker-drug complex, Mino; type: cell-based; settings: Homo sapiens
Method: as §1

U266 = experiment: Cytotoxicity of linker-drug complex, U266; type: cell-based; settings: Homo sapiens
Method: as §1

NCI-N87 = experiment: Cytotoxicity of linker-drug complex, NCI-N87; type: cell-based; settings: Homo sapiens
Method: as §1

OPM-2 = experiment: Cytotoxicity of linker-drug complex, OPM-2; type: cell-based; settings: Homo sapiens
Method: as §1

Daudi = experiment: Cytotoxicity of linker-drug complex, Daudi; type: cell-based; settings: Homo sapiens
Method: as §1

697 = experiment: Cytotoxicity of linker-drug complex, 697; type: cell-based
Method: as §1

NaPi2b [1] = target: T1, NaPi2b (UniProt O95436 1-690, limits assumed); experiment: cell-based or functional assay
T1 sequence (looked up): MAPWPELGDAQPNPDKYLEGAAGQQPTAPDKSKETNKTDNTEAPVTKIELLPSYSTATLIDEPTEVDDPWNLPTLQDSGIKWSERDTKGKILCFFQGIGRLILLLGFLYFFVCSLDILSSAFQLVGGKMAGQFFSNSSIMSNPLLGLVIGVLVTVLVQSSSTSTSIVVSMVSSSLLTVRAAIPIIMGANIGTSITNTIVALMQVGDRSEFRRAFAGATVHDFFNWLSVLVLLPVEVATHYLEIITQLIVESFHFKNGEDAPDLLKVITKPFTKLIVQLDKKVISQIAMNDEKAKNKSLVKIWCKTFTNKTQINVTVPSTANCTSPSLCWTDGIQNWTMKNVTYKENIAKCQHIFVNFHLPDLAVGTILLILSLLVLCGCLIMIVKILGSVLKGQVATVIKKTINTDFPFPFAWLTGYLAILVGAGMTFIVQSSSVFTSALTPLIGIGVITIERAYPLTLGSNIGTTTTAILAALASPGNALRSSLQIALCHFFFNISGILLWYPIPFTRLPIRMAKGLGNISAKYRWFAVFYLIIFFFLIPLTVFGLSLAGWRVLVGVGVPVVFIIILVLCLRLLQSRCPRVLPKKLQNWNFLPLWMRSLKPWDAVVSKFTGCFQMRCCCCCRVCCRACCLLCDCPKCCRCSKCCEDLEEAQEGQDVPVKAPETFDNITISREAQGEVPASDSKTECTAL

NaPi2b [2] = target: T1, NaPi2b; experiment: cell-based or functional assay; remark: listed apart in the source
CLL-1 = target: T2, CLL-1 (UniProt Q5QGZ9 1-265, limits assumed); experiment: cell-based or functional assay
T2 sequence (looked up): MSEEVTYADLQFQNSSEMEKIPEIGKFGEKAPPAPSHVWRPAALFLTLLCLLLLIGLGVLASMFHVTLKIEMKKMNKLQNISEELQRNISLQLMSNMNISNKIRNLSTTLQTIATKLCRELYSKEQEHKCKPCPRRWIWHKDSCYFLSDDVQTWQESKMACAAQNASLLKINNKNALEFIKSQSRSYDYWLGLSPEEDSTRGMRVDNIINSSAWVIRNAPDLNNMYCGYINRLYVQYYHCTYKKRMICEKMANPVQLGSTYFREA

O=C(CCCCCN1C(=O)C=CC1=O)NCCOc1cc(/C=C/C(=O)N2C[C@@H](CCl)c3c2cc(O[C@@H]2O[C@H](CO)[C@H](O)[C@H](O)[C@H]2O)c2ccccc32)ccc1/C=C/C(=O)N1C[C@@H](CCl)c2c1cc(O[C@@H]1O[C@H](CO)[C@H](O)[C@H](O)[C@H]1O)c1ccccc21 [PD001]
IC50 (Calu-6; Calu-6, 144 h, read-out: IC50 #1): 58.9 nM | IC50 (Calu-6; Calu-6, read-out: IC50 #2): 52.2 nM | IC50 (Calu-6; Calu-6, read-out: IC50 Mean): 55.4 nM | IC50 (H929; NCI-H929, 144 h, read-out: IC50 #1): 20.3 nM | IC50 (H929; NCI-H929, read-out: IC50 #2): 26.4 nM | IC50 (H929; NCI-H929, read-out: IC50 Mean): 23.1 nM | IC50 (Jeko-1; JeKo-1, 144 h, read-out: IC50 #1): 13.1 nM | IC50 (Jeko-1; JeKo-1, read-out: IC50 #2): 31.7 nM | IC50 (Jeko-1; JeKo-1, read-out: IC50 Mean): 20.4 nM | IC50 (HCC1954; HCC1954, 144 h, read-out: IC50 #1): 25 nM | IC50 (HCC1954; HCC1954, read-out: IC50 #2): 16.4 nM | IC50 (HCC1954; HCC1954, read-out: IC50 Mean): 20.2 nM | IC50 (jurkat; 144 h, read-out: IC50 #1): 14.5 nM | IC50 (jurkat; read-out: IC50 #2): 1.12 nM | IC50 (jurkat; read-out: IC50 Mean): 12.7 nM | IC50 (Raji; 144 h, Burkitt's lymphoma, run #1, 6 days, CCK-8, read-out: IC50 #1): 30.8 nM | IC50 (Raji; mean of #1 and #2, read-out: IC50 Mean): 18.4 nM | IC50 (Raji; run #2, read-out: IC50 #2): 11 nM | IC50 (JIMT1; JIMT-1, 144 h, read-out: IC50 #1): 47 nM | IC50 (JIMT1; JIMT-1, read-out: IC50 #2): 24.9 nM | IC50 (JIMT1; JIMT-1, read-out: IC50 Mean): 34.2 nM | IC50 (Mino; 144 h, read-out: IC50 #1): 3.26 nM | IC50 (Mino; 144 h, read-out: IC50 #2): 2.34 nM | IC50 (Mino; read-out: IC50 Mean): 2.76 nM | IC50 (U266; U-266, 144 h, read-out: IC50 #1): 7.97 nM | IC50 (U266; U-266, read-out: IC50 #2): 5.61 nM | IC50 (U266; U-266, read-out: IC50 Mean): 6.69 nM | IC50 (NCI-N87; NCI-N87, 144 h, read-out: IC50 #1): 8.06 nM | IC50 (NCI-N87; NCI-N87, read-out: IC50 #2): 9.09 nM | IC50 (NCI-N87; NCI-N87, read-out: IC50 Mean): 8.56 nM | IC50 (OPM-2; OPM-2, 144 h, read-out: IC50 #1): 26.2 nM | IC50 (OPM-2; OPM-2, read-out: IC50 #2): 25.6 nM | IC50 (OPM-2; OPM-2, read-out: IC50 Mean): 25.9 nM | IC50 (Daudi; 144 h, read-out: IC50 #1): 12.5 nM | IC50 (Daudi; read-out: IC50 #2): 9.46 nM | IC50 (Daudi; read-out: IC50 Mean): 10.9 nM | IC50 (697; 144 h, read-out: IC50 #1): 4.78 nM | IC50 (697; read-out: IC50 #2): 3.72 nM | IC50 (697; read-out: IC50 Mean): 4.22 nM

B1: D20002 (10H1-PD001) (antibody, human IgG1, kappa, V domains shown)
VH: EVQLVESGGGLVQPGGSLRLSCAASGFSFSDFAMSWVRQAPGKGLEWVATIGRVAFHTYYPDSMKGRFTISRDNSKNTLYLQMNSLRAEDTAVYYCARHRGFDVGHFDFWGQGTLVTVSS
VL: DIQMTQSPSSLSASVGDRVTITCRSSETLVHSSGNTYLEWYQQKPGKAPKLLIYRVSNRFSGVPSRFSGSGSGTDFTLTISSLQPEDFATYYCFQGSFNPLTFGQGTKVEIKR
modifications: linker-drug PD001 conjugated to a cysteine put in place of lysine 149 (Kabat numbering) of the light chain
IC50, cytotoxicity on OVCAR-3 (NaPi2b [1]): 1.53 nM | non-binder/binder ratio on OVCAR-3 (NaPi2b [1]): ≥ 100 | IC50 (nM), cytotoxicity on OVCAR3 (NaPi2b [2]): 1.5 nM

B2: D20502 (6E7-PD009) (antibody, human IgG1, kappa, V domains shown)
VH: B1 VH
VL: DIQMTQSPSSLSASVGDRVTITCRASQSVSTSSYNYMHWYQQKPGKPPKLLIKYASNLESGVPSRFSGSGSGTDFTLTISSLQPEDFATYYCQHSWEIPLTFGQGTKVEIKR
modifications: linker-drug PD009 conjugated to a cysteine put in place of lysine 149 (Kabat numbering) of the light chain
IC50 (nM), cytotoxicity on EDL-1 (AML) (CLL-1): 0.3 nM
